# Earlier results as cited in patent US20070276004A1, “Pharmaceutical Composition Comprising an Immunosuppressant for Use in the Treatment of Skin Diseases” (priority 2003, published 2007).
# System: allogeneic kidney transplantation
# Conditions: rat model of allogeneic kidney transplantation; oral administration; suppression of systemic immune response
smiles,measurement,value
C=CC[C@@H]1/C=C(\C)C[C@H](C)C[C@H](OC)[C@H]2O[C@@](O)(C(=O)C(=O)N3CCCC[C@H]3C(=O)O[C@H](/C(C)=C/[C@@H]3CC[C@@H](O)[C@H](OC)C3)[C@H](C)[C@@H](O)CC1=O)[C@H](C)C[C@@H]2OC [tacrolimus],minimum effective dose (MED),14 mg/kg
